Assay results taken from patent publication US20080064668A1, “1,3-Diacylated, 26,27-Alkyl/Haloakyl Vitamin D3 Compounds and Methods of Use Thereof” (BioXell S.p.A., priority 2003, published 2008).
pIC50: −log10 of the molar value.

Assays:
RT112 = assay: Proliferation assay using bladder cancer cell lines, RT112; type: cell-based, human; conditions: Homo sapiens, 72 h culture, CyQuant proliferation assay
Procedure: (§1) Bladder cancer cell lines (T24, RT112, HT1376 and RT4 are human bladder cancer cell lines; NHEK are normal human keratinocytes) were obtained from the European Collection of Cell Cultures (Salisbury, UK). Cells were plated at 3×10^3 per well, in flat bottomed 96-well plates in 100 μl of DMEM medium containing: 5% Fetal Clone I, 50 μg/l gentamicin, 1 mM sodium pyruvate and 1% non-essential amino acids. After culturing for 24 h at 37° C. in 5% CO2, to allow cells to adhere to the plates, VDR ligands (compounds (2), (4), (5) and other vitamin D3 analogs as shown in Table 4) were added at concentrations ranging from 100 μM to 0.3 μM in 100 μl of above-mentioned complete medium. After a further 72 h of culture, cell proliferation was measured using a fluorescence-based proliferation assay kit. (CyQuant Cell Proliferation Assay Kit, Molecular Probes, Eugene, Oreg., USA). The IC50 was calculated from the regression curve of the titration data.

[1] = Determination of Maximum Tolerated Dose (MTD); conditions: female, C57BL/6, mouse, in vivo, po
Procedure: The maximum tolerated dose of the vitamin D3 compounds of the invention were determined in eight week-old female C57BL/6 mice (3 mice/group) dosed orally (0.1 ml/mouse) with various concentrations of Vitamin D3 analogs daily for four days. Analogs were formulated in miglyol for a final concentration of 0.01, 0.03, 0.1 0.3, 1, 3, 10, 30, 100 and 300 μg/kg when given at 0.1 ml/mouse p.o. daily. Blood for serum calcium assay was drawn by tail bleed on day five, the final day of the study.

[2] = MTD in CD1 mouse (highest non-hypercalcemic dose); conditions: in vivo
Human BPH cells = assay: BPH cell proliferation assay (testosterone-induced); type: cell-based; conditions: 48 h
Procedure: Human BPH cells, prepared, maintained and used as previously described in Crescioli C, et al. Journal of Clinical and Endocrinology Metabolism (2000) 85 p 2576-2583, were obtained from prostate tissues derived from 5 patients, who underwent suprapubic adenomectomy for BPH, after informed consent and approval by the Local Ethical Committee.
For all cell proliferation assays, 4×10^4 BPH cells were seeded onto 12-well plates in their growth medium, starved in red- and serum-free medium containing 0.1% BSA for 24 h, and then treated with specific stimuli for 48 h. Cells in phenol red- and serum-free medium containing 0.1% BSA were used as controls. Thereafter, cells were trypsinized, and each experimental point was derived from hemocytometer counting, averaging at least six different fields for each well, as previously reported (see Crescioli C, et al. Journal of Clinical and Endocrinology Metabolism (2000) 85 p 2576-2583).
Growth assays were also carried out using a fixed concentration of androgens (10 nM) with or without vitamin-D analogs (1 nM, 10 nM) or the anti-androgens finasteride (F, 1 nM) and cyproterone acetate (Cyp, 100 nM. Growth assays were also performed using a fixed concentration of T (10 nM) or GFs (10 ng/ml) with or without the vitamin-D analogs. (10 nM).
In the same experiment, each experimental point was repeated in triplicate or quadruplicate and experiments were performed 3 times. Results are expressed as % variation (mean±SEM) over the maximal T or GF-induced stimulation.

RT4 = assay: Proliferation assay using bladder cancer cell lines, RT4; type: cell-based, human; conditions: Homo sapiens, 72 h culture, CyQuant proliferation assay
Procedure: as §1

HT 1376 = assay: Proliferation assay using bladder cancer cell lines, HT1376; type: cell-based, human; conditions: Homo sapiens, HT-1376; 72 h culture, CyQuant proliferation assay
Procedure: as §1

ECV = assay: Proliferation assay using bladder cancer cell lines, ECV; type: cell-based, human; conditions: Homo sapiens; 72 h culture, CyQuant proliferation assay
IFN-γ production = IFN-γ production in the mixed leukocyte response (MLR); type: cell-based; conditions: 120 h; allogeneic PBMC from 2 donors, 5 days, ELISA; read-out: INF-γ IC50
Procedure: Immature dendritic cells (DC) were prepared as described in Romani, N. et al. (Romani, N. et al. (1996) J. Immunol. Meth. 196:137). IFN-γ production by allogeneic T cell activation in the mixed leukocyte response (MLR) was determined as described in Penna, G., et al., J Immunol., 164: 2405-2411 (2000).
Briefly, peripheral blood mononuclear cells (PBMC) were separated from buffy coats by Ficoll gradient and the same number (3×10^5) of allogeneic PBMC from 2 different donors were co-cultured in 96-well flat-bottom plates. The vitamin D3 compounds were added to each of the cultures.

NHEK = assay: Proliferation assay, NHEK normal human keratinocytes; type: cell-based; conditions: Homo sapiens, NHEK; 72 h culture, CyQuant proliferation assay
Procedure: as §1

[3] = system: human stromal bladder cells; assay: Inhibition of basal human bladder cell growth; type: cell-based
Text: The Inventors confirmed the presence of vitamin D receptors (VDRs), as previously reported in the literature, on these cells (see below in FIG. 3).
(§2) The maximum tolerated dose (MTD) in rats is also listed for each compound (Table 7).

[4] = Maximum tolerated dose (MTD) in rats (Table 7); conditions: rat, in vivo
Text: as §2

C=C1/C(=C\C=C2/CCC[C@]3(C)C(C(C)CC#CC(C)(C)O)=CCC23)CC(OC(C)=O)C[C@@H]1OC(C)=O (stereo partly drawn) [(7), 1,3-Di-O-acetyl-1,25-dihydroxy-16-ene-23-yne-cholecalciferol] showed a pIC50 (RT112; RT-112, 72 h) of 5.52, an MTD at 4 days [1] of 0.01 mg/kg and an MTD [2] of 0.01 mg/kg. For the same compound, the pIC50 (Human BPH cells) was 4.37, the pIC50 (RT4; RT-4, 72 h) was 4.10 and the pIC50 (HT 1376) was under 4.00. It also gave a pIC50 (ECV) of 4.56, a pIC50 (IFN-γ production) of 10.29 and a pIC50 (NHEK) of 5.32.

For C=C1/C(=C\C=C2/CCC[C@]3(C)C(C(C)CC#CC(O)(C(F)(F)F)C(F)(F)F)=CCC23)CC(OC(C)=O)C[C@@H]1OC(C)=O (stereo partly drawn) [(14), 1,3-Di-O-acetyl-1,25-dihydroxy-16-ene-23-yne-26,27-hexafluoro-cholecalciferol], the pIC50 (RT112; RT-112, 72 h) was 4.59, the MTD at 4 days [1] was 0.01 mg/kg and the MTD [2] was 0.01 mg/kg. It also gave a pIC50 (Human BPH cells) of 3.30, a pIC50 (RT4; RT-4, 72 h) of 4.72 and a pIC50 (HT 1376) of under 4.00. The pIC50 (ECV) was under 4.00, the pIC50 (IFN-γ production) was 10.56 and the pIC50 (NHEK) was 6.01.

In the case of CC(=O)OC1C/C(=C/C=C2\CCC[C@@]3(C)C2CCC3C2(CC#CC(OC(C)=O)(C(F)(F)F)C(F)(F)F)CC2)C[C@@H](OC(C)=O)C1 (stereo partly drawn) [(26), 1,3,25-Tri-O-acetyl-1,25-dihydroxy-20-cyclopropyl-23-yne-26,27-hexafluoro-19-nor-cholecalciferol], the pIC50 (RT112; RT-112, 72 h) was 4.82, the MTD at 4 days [1] was 0.01 mg/kg and the MTD [2] was 0.01 mg/kg. For the same compound, the pIC50 (Human BPH cells) was under 1.00, the pIC50 (RT4; RT-4, 72 h) was 5.30 and the pIC50 (HT 1376) was under 4.00. For the same compound, the pIC50 (ECV) was 4.20, the pIC50 (IFN-γ production) was 9.04 and the pIC50 (NHEK) was 4.48.

For CC(=O)OC1C/C(=C/C=C2\CCC[C@@]3(C)C2CCC3C2(CC#CC(O)(C(F)(F)F)C(F)(F)F)CC2)C[C@@H](OC(C)=O)C1 (stereo partly drawn) [(27), 1,3-Di-O-acetyl-1,25-dihydroxy-20-cyclopropyl-23-yne-26,27-hexafluoro-19-nor-cholecalciferol], the MTD at 4 days [1] was 0.01 mg/kg, the MTD [2] was 0.01 mg/kg and the pIC50 (Human BPH cells) was 9.10. For the same compound, the pIC50 (HT 1376) was 4.37, the pIC50 (ECV) was 4.59 and the pIC50 (IFN-γ production) was 10.11. For the same compound, the pIC50 (NHEK) was 5.59.

Compound C=C1/C(=C\C=C2/CCC[C@@]3(C)C2CCC3C2(CC#CC(C)(C)O)CC2)CC(OC(C)=O)C[C@@H]1OC(C)=O (stereo partly drawn) [(29), 1,3-Di-O-acetyl-1,25-dihydroxy-20-cyclopropyl-23-yne-cholecalciferol] has a pIC50 (RT112; RT-112, 72 h) of 5.10, an MTD at 4 days [1] of 0.03 mg/kg and an MTD [2] of 0.03 mg/kg. It also gave a pIC50 (Human BPH cells) of 8.50, a pIC50 (RT4; RT-4, 72 h) of 4.89 and a pIC50 (HT 1376) of 4.10. For the same compound, the pIC50 (ECV) was 4.30, the pIC50 ([3]; Homo sapiens) was over 2.00 and the pIC50 (IFN-γ production) was 11.11. The MTD [4] was 0.03 mg/kg and the pIC50 (NHEK) was 5.23.

For C=C1/C(=C\C=C2/CCC[C@@]3(C)C2CCC3C(C)CC#CC(C)(C)O)CC(OC(C)=O)C[C@@H]1OC(C)=O (stereo partly drawn) [(41), 1,3-Di-O-acetyl-1,25-dihydroxy-23-yne-cholecalciferol], the pIC50 (RT112; RT-112, 72 h) was 5.10, the MTD at 4 days [1] was 0.001 mg/kg and the MTD [2] was 0.001 mg/kg. For the same compound, the pIC50 (Human BPH cells) was 9.14, the pIC50 (RT4; RT-4, 72 h) was 4.07 and the pIC50 (HT 1376) was under 4.00. The pIC50 (ECV) was 4.40, the pIC50 (IFN-γ production) was 10.10 and the pIC50 (NHEK) was 5.38.

C=C1/C(=C\C=C2/CCC[C@]3(C)[C@@H]([C@H](C)CCCC(C)(C)O)CC[C@@H]23)C[C@@H](O)C[C@@H]1O [Calcitriol, 1,25-dihydroxycholecalciferol, reference compound] gave a pIC50 (RT112; RT-112) of 4.72, an MTD at 4 days [1] of 0.001 mg/kg and an MTD [2] of 0.001 mg/kg. For the same compound, the pIC50 (Human BPH cells) was 7.07, the pIC50 (RT4; RT-4) was 4.35 and the pIC50 (HT 1376) was 4.30. The “inhibiting the basal growth of bladder cells” value ([3]; human stromal bladder cells in culture) was “effective”, the pIC50 (IFN-γ production) was 10.66 and the pIC50 (NHEK) was 5.31.
